Reference: patent publication US20070293553A1, “Diphenylurea Derivatives Useful As Potassium Channel Activators” (priority 2004, published 2007)

Tested on: cough reflex in conscious guinea-pigs
Assay: Citric acid-induced cough in conscious guinea-pigs
Format: in vivo, guinea-pig
Conditions: prior exposure to aerosolized test compound (300 μM in nebulizer solution), 10 minutes citric acid aerosol, FIG. 1
Experimental: Exposure of animals for 10 minutes with citric acid aerosol elicited a reproducible cough response.
The cough model is based on guinea-pigs that have been pre-screened to assess their cough response to a 10 minutes exposure of aerosolised 0.35 M citric acid. […] The guinea-pigs are then ranked with regard to their tussive response to citric acid and divided into groups so that the mean number of coughs per group is similar in the vehicle and drug treated groups.
Cough is detected both by pressure change and by sound and recorded using a chart recorder. All animals received Terbutaline (0.05 mg/kg i.p.) 10 minutes prior to challenge with citric acid to alleviate any bronchoconstriction that may occur. These animals were allowed to recover for 1 week. Following this rest period the study was initiated and animals received aerosolised vehicle (1% DMSO) or test compound at 300 μM in 1% DMSO in saline for 20 minutes prior to exposure to citric acid. After dosing, the animals were monitored and exposed to 0.35 M citric acid for 10 minutes, and the number of coughs recorded.
Initially N-(3,5-Dichlorophenyl)-N′-[3-(1H-tetrazol-5-yl)-3′-trifluoromethyl-bi-phenyl-4-yl]-urea (Compound A (3-39)) and N-(3,5-Dichlorophenyl)-N′-[4-bromo-2-(1H-tetrazol-5-yl)phenyl]urea (Compound B) were subjected to this determination, and the results of these determinations are presented in FIG. 1.

Row | SMILES | cough response to citric acid
1 | O=C(Nc1cc(Cl)cc(Cl)c1)Nc1ccc(-c2cccc(C(F)(F)F)c2)cc1-c1nnn[nH]1 [Compound 3-39, N-(3,5-Dichloro-phenyl)-N′-[3-(1H-tetrazol-5-yl)-3′-trifluoromethyl-biphenyl-4-yl]-urea] | greatly reduced
2 | O=C(Nc1cc(Cl)cc(Cl)c1)Nc1ccc(Br)cc1-c1nnn[nH]1 [Compound B, N-(3,5-Dichlorophenyl)-N′-[4-bromo-2-(1H-tetrazol-5-yl)phenyl]urea] | greatly reduced

Tested on: not given
Assay: not given
Conditions: not given

Row | SMILES | melting point [°C]
3 | O=C(Nc1cc(Cl)cc(Cl)c1)Nc1ccc(-c2cccc(C(F)(F)F)c2)cc1-c1nnn[nH]1 [Compound 3-39, N-(3,5-Dichloro-phenyl)-N′-[3-(1H-tetrazol-5-yl)-3′-trifluoromethyl-biphenyl-4-yl]-urea] | 236 to 239
4 | O=C(Nc1cc(C(F)(F)F)cc(C(F)(F)F)c1)Nc1ccc(-c2cccc(C(F)(F)F)c2)cc1-c1nnn[nH]1 [Compound 3-40, N-(3,5-Bis-trifluoromethyl-phenyl)-N′-[3-(1H-tetrazol-5-yl)-3′-trifluoromethyl-biphenyl-4-yl]-urea] | 250 to 252
5 | COc1ccc(-c2ccc(NC(=O)Nc3cc(F)cc(F)c3)c(-c3nnn[nH]3)c2)cc1 [Compound 3-41, N-(3,5-Difluoro-phenyl)-N′-[4′-methoxy-3-(1H-tetrazol-5-yl)-biphenyl-4-yl]-urea] | 129 to 133
6 | COc1ccc(-c2ccc(NC(=O)Nc3cc(C(F)(F)F)cc(C(F)(F)F)c3)c(-c3nnn[nH]3)c2)cc1 [Compound 3-42, N-(3,5-Bis-trifluoromethyl-phenyl)-N′-[4′-methoxy-3-(1H-tetrazol-5-yl)-biphenyl-4-yl]-urea] | 219 to 221
7 | O=C(Nc1cccc(Br)c1)Nc1ccc(-c2ccc(C(F)(F)F)cc2)cc1-c1nnn[nH]1 [Compound 3-43, N-(3-Bromo-phenyl)-N′-[3-(1H-tetrazol-5-yl)-4′-trifluoromethyl-biphenyl-4-yl]-urea] | 203 to 210
8 | O=C(Nc1ccc(Cl)cc1)Nc1ccc(-c2ccc(C(F)(F)F)cc2)cc1-c1nnn[nH]1 [Compound 3-44, N-(4-Chloro-phenyl)-N′-[3-(1H-tetrazol-5-yl)-4′-trifluoromethyl-biphenyl-4-yl]-urea] | 232 to 234
9 | O=C(Nc1ccc(F)c(C(F)(F)F)c1)Nc1ccc(-c2cccc(C(F)(F)F)c2)cc1-c1nnn[nH]1 [Compound 3-45, N-(4-Fluoro-3-trifluoromethyl-phenyl)-N′-[3-(1H-tetrazol-5-yl)-3′-trifluoromethyl-biphenyl-4-yl]-urea] | 254 to 255
